Data from the supplement of paper PMC12463676, “Small-molecule dissolution of stress granules by redox modulation benefits ALS models” (Nature Chemical Biology, 2025).

What was measured:
[1] = compound: NC(=O)CCCCC1CCSS1 [lipoamide]; assay: thermal stability z-score vs DMSO; higher = more thermally stabilized by treatment; conditions: HeLa, lipoamide concentration 100 µM
Protocol: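 Cellular thermal proteome profiling in HeLa cells. Cells were treated with 100 µM lipoamide for 1 h, with or without 1 mM arsenate for a further 1 h, then heated to ten temperatures (37-66.3 °C), and soluble protein was quantified by TMT mass spectrometry relative to 0.1% DMSO controls. The thermal stability score (sum of log2 fold changes minus the abundance score) was transformed to a z-score; mean of n = 3 experiments.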

[2] = compound: O=[As]([O-])(O)O.[K+] [potassium arsenate]; assay: as above; conditions: HeLa; arsenate concentration 1 mM
Protocol: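 Cellular thermal proteome profiling in HeLa cells treated with 1 mM arsenate for 1 h (DMSO pretreatment), heated to ten temperatures (37-66.3 °C). Soluble protein was quantified by TMT mass spectrometry relative to DMSO controls; the thermal stability score was transformed to a z-score; mean of n = 3 experiments.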

[3] = arsenate co-treatment: 1 mM arsenate 1 h
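Note: each temperature applied for 3 min, abundance score taken as mean log2 fold change at the two lowest temperatures, z-score obtained by mean subtraction and division by SD.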

Chain of UniProt O43776 (O43776 whole entry): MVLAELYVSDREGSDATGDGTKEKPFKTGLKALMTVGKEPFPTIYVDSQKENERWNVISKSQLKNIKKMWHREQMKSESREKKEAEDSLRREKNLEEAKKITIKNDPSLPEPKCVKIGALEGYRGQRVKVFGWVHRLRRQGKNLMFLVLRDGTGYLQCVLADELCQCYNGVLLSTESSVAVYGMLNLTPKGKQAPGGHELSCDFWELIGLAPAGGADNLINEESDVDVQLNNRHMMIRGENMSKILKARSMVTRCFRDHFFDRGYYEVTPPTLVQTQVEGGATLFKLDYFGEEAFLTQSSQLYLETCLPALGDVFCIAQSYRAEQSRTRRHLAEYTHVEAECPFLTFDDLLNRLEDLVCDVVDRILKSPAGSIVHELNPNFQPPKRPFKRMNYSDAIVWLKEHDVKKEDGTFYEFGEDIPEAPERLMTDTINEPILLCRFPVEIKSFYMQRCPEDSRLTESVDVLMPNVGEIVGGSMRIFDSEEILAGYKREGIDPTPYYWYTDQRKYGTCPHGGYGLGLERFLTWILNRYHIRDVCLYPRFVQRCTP
Chain of UniProt P17050 (P17050 whole entry): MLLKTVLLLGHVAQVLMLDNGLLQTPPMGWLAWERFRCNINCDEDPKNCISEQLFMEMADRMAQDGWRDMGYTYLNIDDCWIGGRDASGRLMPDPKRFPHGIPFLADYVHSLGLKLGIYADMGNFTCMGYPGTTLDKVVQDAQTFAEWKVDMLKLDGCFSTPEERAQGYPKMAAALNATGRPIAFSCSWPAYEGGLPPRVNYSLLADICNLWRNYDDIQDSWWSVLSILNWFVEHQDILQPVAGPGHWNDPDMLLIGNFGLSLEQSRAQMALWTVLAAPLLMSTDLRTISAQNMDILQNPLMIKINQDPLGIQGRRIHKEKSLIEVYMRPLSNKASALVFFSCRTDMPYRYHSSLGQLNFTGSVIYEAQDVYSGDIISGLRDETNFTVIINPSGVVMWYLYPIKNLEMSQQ
Chain of UniProt Q9H0A0 (Q9H0A0 whole entry): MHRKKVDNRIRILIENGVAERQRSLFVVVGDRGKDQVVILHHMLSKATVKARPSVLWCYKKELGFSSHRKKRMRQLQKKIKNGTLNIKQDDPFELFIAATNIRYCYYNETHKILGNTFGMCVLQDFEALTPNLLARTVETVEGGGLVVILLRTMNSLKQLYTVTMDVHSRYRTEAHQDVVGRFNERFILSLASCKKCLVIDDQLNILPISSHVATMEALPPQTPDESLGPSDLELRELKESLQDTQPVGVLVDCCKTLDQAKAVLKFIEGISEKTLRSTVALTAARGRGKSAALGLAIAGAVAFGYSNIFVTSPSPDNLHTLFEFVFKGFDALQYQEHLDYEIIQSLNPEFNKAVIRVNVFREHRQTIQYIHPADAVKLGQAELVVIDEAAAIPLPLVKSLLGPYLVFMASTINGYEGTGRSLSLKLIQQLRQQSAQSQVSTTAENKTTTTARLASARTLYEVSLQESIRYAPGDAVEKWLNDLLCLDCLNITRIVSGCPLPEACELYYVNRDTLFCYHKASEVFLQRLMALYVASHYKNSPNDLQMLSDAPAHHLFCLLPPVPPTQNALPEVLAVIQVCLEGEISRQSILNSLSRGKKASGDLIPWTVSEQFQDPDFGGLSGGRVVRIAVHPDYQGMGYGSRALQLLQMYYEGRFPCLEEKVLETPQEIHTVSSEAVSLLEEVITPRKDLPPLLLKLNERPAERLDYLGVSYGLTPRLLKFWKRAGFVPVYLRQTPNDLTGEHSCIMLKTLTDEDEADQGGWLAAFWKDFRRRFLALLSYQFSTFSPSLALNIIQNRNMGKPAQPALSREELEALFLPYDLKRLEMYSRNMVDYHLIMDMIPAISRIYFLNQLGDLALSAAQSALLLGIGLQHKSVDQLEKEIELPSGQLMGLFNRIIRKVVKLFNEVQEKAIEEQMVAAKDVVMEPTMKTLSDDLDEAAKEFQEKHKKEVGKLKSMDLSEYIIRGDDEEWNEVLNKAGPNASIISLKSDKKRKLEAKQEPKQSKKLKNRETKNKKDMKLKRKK
Chain of UniProt P49321 (P49321 whole entry): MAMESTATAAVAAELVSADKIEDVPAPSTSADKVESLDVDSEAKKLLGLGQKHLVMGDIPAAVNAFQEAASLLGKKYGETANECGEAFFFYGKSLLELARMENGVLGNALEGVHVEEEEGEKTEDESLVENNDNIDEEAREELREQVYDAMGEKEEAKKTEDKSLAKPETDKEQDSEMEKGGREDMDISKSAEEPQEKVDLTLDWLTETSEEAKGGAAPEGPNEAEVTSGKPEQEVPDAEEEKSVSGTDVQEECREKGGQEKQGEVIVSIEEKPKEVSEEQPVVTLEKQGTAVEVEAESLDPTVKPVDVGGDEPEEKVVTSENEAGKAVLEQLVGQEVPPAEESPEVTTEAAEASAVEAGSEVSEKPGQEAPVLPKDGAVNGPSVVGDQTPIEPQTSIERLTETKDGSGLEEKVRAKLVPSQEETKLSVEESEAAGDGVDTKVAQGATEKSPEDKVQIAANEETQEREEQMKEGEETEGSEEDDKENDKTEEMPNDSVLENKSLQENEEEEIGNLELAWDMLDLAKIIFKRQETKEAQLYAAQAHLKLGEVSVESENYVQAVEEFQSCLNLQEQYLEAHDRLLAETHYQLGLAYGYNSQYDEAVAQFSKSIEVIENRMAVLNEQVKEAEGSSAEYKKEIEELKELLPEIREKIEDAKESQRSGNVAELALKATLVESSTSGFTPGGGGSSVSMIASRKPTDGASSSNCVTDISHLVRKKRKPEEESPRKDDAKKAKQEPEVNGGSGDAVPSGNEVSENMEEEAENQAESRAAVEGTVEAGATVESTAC
Chain of UniProt P54802 (P54802 whole entry): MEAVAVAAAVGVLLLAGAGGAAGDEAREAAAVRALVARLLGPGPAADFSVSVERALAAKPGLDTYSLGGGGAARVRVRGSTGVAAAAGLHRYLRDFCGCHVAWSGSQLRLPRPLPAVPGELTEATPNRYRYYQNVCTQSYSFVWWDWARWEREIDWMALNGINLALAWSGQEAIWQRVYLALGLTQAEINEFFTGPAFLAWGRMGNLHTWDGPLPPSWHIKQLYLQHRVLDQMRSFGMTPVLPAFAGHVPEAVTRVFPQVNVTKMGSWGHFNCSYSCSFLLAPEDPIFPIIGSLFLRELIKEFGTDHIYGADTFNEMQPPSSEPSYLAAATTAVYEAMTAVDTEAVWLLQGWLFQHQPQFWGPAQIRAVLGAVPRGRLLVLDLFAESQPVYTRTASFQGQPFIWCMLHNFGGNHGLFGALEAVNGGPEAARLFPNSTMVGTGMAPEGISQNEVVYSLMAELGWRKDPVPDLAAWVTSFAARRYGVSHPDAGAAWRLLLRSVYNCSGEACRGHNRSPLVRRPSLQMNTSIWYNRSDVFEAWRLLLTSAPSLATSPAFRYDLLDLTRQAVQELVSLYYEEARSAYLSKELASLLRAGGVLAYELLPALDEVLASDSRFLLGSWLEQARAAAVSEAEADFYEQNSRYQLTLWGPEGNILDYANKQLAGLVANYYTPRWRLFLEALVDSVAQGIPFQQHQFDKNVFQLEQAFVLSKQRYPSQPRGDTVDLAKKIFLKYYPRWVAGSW
Chain of UniProt Q8NCW5 (Q8NCW5 whole entry): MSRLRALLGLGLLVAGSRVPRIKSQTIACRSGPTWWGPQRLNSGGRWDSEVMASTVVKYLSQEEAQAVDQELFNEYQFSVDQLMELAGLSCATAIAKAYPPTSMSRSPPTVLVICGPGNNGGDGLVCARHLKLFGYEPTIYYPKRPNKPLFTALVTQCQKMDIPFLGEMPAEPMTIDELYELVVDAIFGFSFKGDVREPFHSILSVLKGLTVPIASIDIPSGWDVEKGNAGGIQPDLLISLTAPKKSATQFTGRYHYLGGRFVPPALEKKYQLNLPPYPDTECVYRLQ
Chain of UniProt Q96HR8 (Q96HR8 whole entry): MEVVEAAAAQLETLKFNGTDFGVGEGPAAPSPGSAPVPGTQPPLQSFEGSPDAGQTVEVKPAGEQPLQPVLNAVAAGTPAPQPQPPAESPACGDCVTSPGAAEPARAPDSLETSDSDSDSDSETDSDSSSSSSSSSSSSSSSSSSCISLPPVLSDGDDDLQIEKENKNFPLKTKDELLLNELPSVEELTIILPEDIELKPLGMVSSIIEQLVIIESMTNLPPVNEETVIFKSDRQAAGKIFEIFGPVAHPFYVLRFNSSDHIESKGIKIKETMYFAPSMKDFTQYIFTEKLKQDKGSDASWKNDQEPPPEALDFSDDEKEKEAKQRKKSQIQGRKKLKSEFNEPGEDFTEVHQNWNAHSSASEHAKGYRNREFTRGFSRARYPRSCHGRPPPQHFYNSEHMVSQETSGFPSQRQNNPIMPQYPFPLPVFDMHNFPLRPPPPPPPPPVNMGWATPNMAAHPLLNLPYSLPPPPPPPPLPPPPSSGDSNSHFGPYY
Chain of UniProt Q9NR45 (Q9NR45 whole entry): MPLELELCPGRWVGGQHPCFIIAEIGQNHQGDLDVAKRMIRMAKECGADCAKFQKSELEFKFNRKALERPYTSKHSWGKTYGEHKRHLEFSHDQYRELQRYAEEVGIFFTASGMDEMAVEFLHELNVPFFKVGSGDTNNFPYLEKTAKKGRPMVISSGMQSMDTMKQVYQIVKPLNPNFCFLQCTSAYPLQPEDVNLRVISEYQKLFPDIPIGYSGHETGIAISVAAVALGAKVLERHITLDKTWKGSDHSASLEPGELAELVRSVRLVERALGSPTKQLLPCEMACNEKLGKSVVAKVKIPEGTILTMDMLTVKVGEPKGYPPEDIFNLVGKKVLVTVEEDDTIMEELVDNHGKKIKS
Chain of UniProt Q93015 (Q93015 whole entry): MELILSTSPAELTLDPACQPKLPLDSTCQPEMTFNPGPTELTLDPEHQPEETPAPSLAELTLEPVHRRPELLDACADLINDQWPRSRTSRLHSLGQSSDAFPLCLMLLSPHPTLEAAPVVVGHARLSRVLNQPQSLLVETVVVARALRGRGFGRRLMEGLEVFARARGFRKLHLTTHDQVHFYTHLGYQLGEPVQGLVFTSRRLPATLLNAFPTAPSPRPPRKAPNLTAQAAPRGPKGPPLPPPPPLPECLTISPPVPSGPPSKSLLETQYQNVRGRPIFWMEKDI

Target NADK (UniProt O95544) has a thermal stability z-score [1, 3] of 0.88, a thermal stability z-score ([1]; arsenate co-treatment: none) of 0.314 and a thermal stability z-score [2] of -0.183.

In the case of NADSYN1 (UniProt Q6IA69), the thermal stability z-score [1, 3] was 0.995, the thermal stability z-score ([1]; arsenate co-treatment: none) was 0.788 and the thermal stability z-score [2] was -0.0415.

In the case of NAE1 (UniProt Q13564), the thermal stability z-score [1, 3] was -0.406, the thermal stability z-score ([1]; arsenate co-treatment: none) was -0.333 and the thermal stability z-score [2] was -0.18.

NAF1 (UniProt Q96HR8) was tested, and the thermal stability z-score [1, 3] was 0.316, the thermal stability z-score ([1]; arsenate co-treatment: none) was 0.23 and the thermal stability z-score [2] was 0.149.

For NAGA (UniProt P17050), the thermal stability z-score [1, 3] was -0.786, the thermal stability z-score ([1]; arsenate co-treatment: none) was -0.0771 and the thermal stability z-score [2] was 0.546.

Target NAGK (UniProt Q9UJ70) has a thermal stability z-score [1, 3] of 0.0756, a thermal stability z-score ([1]; arsenate co-treatment: none) of -0.796 and a thermal stability z-score [2] of -0.921.

NAGLU (UniProt P54802) showed a thermal stability z-score [1, 3] of 0.208, a thermal stability z-score ([1]; arsenate co-treatment: none) of -0.281 and a thermal stability z-score [2] of 0.253.

In the case of NAGPA (UniProt Q9UK23), the thermal stability z-score [1, 3] was -0.847, the thermal stability z-score ([1]; arsenate co-treatment: none) was -0.928 and the thermal stability z-score [2] was -1.05.

Target NAMPT (UniProt P43490) has a thermal stability z-score [1, 3] of 0.551, a thermal stability z-score ([1]; arsenate co-treatment: none) of 0.0412 and a thermal stability z-score [2] of -0.494.

For NANP (UniProt Q8TBE9), the thermal stability z-score [1, 3] was 0.191, the thermal stability z-score ([1]; arsenate co-treatment: none) was 0.0578 and the thermal stability z-score [2] was -0.582.

In the case of NANS (UniProt Q9NR45), the thermal stability z-score [1, 3] was 0.185, the thermal stability z-score ([1]; arsenate co-treatment: none) was 0.107 and the thermal stability z-score [2] was 0.887.

Work on NAP1L1 (UniProt P55209) yielded a thermal stability z-score [1, 3] of -0.552, a thermal stability z-score ([1]; arsenate co-treatment: none) of -0.224 and a thermal stability z-score [2] of -0.164.

Work on NAP1L4 (UniProt Q99733) yielded a thermal stability z-score [1, 3] of -0.0111, a thermal stability z-score ([1]; arsenate co-treatment: none) of 0.113 and a thermal stability z-score [2] of -0.384.

NAPA (UniProt P54920) was tested, and the thermal stability z-score [1, 3] was 0.374, the thermal stability z-score ([1]; arsenate co-treatment: none) was 0.143 and the thermal stability z-score [2] was 1.02.

NAPG (UniProt Q99747) gave a thermal stability z-score [1, 3] of -0.212, a thermal stability z-score ([1]; arsenate co-treatment: none) of -0.012 and a thermal stability z-score [2] of 0.0503.

In the case of NAPRT (UniProt Q6XQN6), the thermal stability z-score [1, 3] was -0.379, the thermal stability z-score ([1]; arsenate co-treatment: none) was -0.0584 and the thermal stability z-score [2] was -0.197.

NARF (UniProt Q9UHQ1) was tested, and the thermal stability z-score [1, 3] was 0.102, the thermal stability z-score ([1]; arsenate co-treatment: none) was -0.133 and the thermal stability z-score [2] was -0.0435.

Work on NARFL (UniProt Q9H6Q4) yielded a thermal stability z-score [1, 3] of 0.327, a thermal stability z-score ([1]; arsenate co-treatment: none) of 0.0715 and a thermal stability z-score [2] of -0.0417.

For NARS2 (UniProt Q96I59), the thermal stability z-score [1, 3] was -0.454, the thermal stability z-score ([1]; arsenate co-treatment: none) was 0.256 and the thermal stability z-score [2] was -0.19.

NARS (UniProt O43776) gave a thermal stability z-score [1, 3] of -0.596, a thermal stability z-score ([1]; arsenate co-treatment: none) of -0.292 and a thermal stability z-score [2] of 1.17.

Target NASP (UniProt P49321) has a thermal stability z-score [1, 3] of -0.412, a thermal stability z-score ([1]; arsenate co-treatment: none) of 0.0851 and a thermal stability z-score [2] of 0.578.

NAT6 (UniProt Q93015) was tested, and the thermal stability z-score [1, 3] was 0.0786, the thermal stability z-score ([1]; arsenate co-treatment: none) was -0.349 and the thermal stability z-score [2] was -0.338.

In the case of NAT10 (UniProt Q9H0A0), the thermal stability z-score [1, 3] was 0.444, the thermal stability z-score ([1]; arsenate co-treatment: none) was -0.105 and the thermal stability z-score [2] was -0.812.

NAV1 (UniProt Q8NEY1) showed a thermal stability z-score [1, 3] of -0.0334, a thermal stability z-score ([1]; arsenate co-treatment: none) of 0.0173 and a thermal stability z-score [2] of 0.073.

Work on NAV2 (UniProt Q8IVL1) yielded a thermal stability z-score [1, 3] of 0.0134, a thermal stability z-score ([1]; arsenate co-treatment: none) of -0.0355 and a thermal stability z-score [2] of -0.055.

In the case of NAXD (UniProt Q8IW45), the thermal stability z-score [1, 3] was -0.31, the thermal stability z-score ([1]; arsenate co-treatment: none) was 0.472 and the thermal stability z-score [2] was 0.0249.

NAXE (UniProt Q8NCW5) showed a thermal stability z-score [1, 3] of 0.137, a thermal stability z-score ([1]; arsenate co-treatment: none) of 0.266 and a thermal stability z-score [2] of -0.422.

In the case of NBAS (UniProt A2RRP1), the thermal stability z-score [1, 3] was 0.00568, the thermal stability z-score ([1]; arsenate co-treatment: none) was 0.0731 and the thermal stability z-score [2] was -0.0529.

NBEAL1 (UniProt Q6ZS30) gave a thermal stability z-score [1, 3] of 0.108, a thermal stability z-score ([1]; arsenate co-treatment: none) of -0.0292 and a thermal stability z-score [2] of -0.119.

NBEAL2 (UniProt Q6ZNJ1) showed a thermal stability z-score [1, 3] of -0.0914, a thermal stability z-score ([1]; arsenate co-treatment: none) of 0.0428 and a thermal stability z-score [2] of 0.0522.

NBN (UniProt O60934) was tested, and the thermal stability z-score [1, 3] was 0.219, the thermal stability z-score ([1]; arsenate co-treatment: none) was 0.275 and the thermal stability z-score [2] was -0.469.
